The results in this text go back to patent US20260132164A1, “PNU ANTHRACYCLINE DERIVATIVES AND METHODS OF USE THEREOF” (Merck Sharp & Dohme LLC, priority 2022, published 2026).

The EC50 is the concentration that produces a half-maximal response. Lower therefore signals an effect from little substance.

The subject of one experiment is BxPC3. Description: CellTiter-Glo 2.0 Cytotoxicity Assay. It is filed as cell-based. As to conditions: CellTiter-Glo 2.0 luminescence; compound added day 1, read on day 4 or 5; 3000 cells/well. On the technique in general: Cellular ATP, detected with luciferase, serves as a proxy for viable cell number.
With `COc1cccc2c1C(=O)c1c(O)c3c(c(O)c1C2=O)C[C@@](O)(C(=O)NCC1CC(=O)NC1=O)C[C@@H]3O[C@H]1C[C@H]2[C@H](O[C@@H]3[C@@H](OC)OCCN32)[C@H](C)O1` (some centres unmarked) [Compound 87], the concentration for a half-maximal effect (EC50) was found to be 0.12 nM. On to `COc1cccc2c1C(=O)c1c(O)c3c(c(O)c1C2=O)C[C@@](O)(C(=O)NCC1CC(=O)NC1=O)C[C@@H]3O[C@H]1C[C@H]2[C@H](O[C@@H]3[C@@H](OC)OCCN32)[C@H](C)O1` (some centres unmarked) [Compound 88], for which it took 0.27 nM to reach a half-maximal effect (EC50). `COc1cccc2c1C(=O)c1c(O)c3c(c(O)c1C2=O)C[C@@](O)(C(=O)NC1CCC1N)C[C@@H]3O[C@H]1C[C@H]2[C@H](O[C@@H]3[C@@H](OC)OCCN32)[C@H](C)O1` (some centres unmarked) [Compound 19] had an EC50 of 4 nM. Take `COc1cccc2c1C(=O)c1c(O)c3c(c(O)c1C2=O)C[C@@](O)(C(=O)NC1CCC1N)C[C@@H]3O[C@H]1C[C@H]2[C@H](O[C@@H]3[C@@H](OC)OCCN32)[C@H](C)O1` (some centres unmarked) [Compound 20]: the EC50 amounted to 8.5 nM. This EC50 lies about 2.1-fold higher than the previous one. Same read-out and setting: in the case of `COc1cccc2c1C(=O)c1c(O)c3c(c(O)c1C2=O)C[C@@](O)(C(=O)NCCN(C)C(=O)C1CCNC1)C[C@@H]3O[C@H]1C[C@H]2[C@H](O[C@@H]3[C@@H](OC)OCCN32)[C@H](C)O1` (single isomer, unassigned) [Compound 50] it was 20 nM.

Staying with this experiment, now noted: Homo sapiens, BXPC-3, CellTiter-Glo 2.0 luminescence; compound added day 1, read on day 4 or 5; 3000 cells/well.
With `COc1cccc2c1C(=O)c1c(O)c3c(c(O)c1C2=O)C[C@@](O)(C(=O)NCCN1CCNC1=O)C[C@@H]3O[C@H]1C[C@H]2[C@H](O[C@@H]3[C@@H](OC)OCCN32)[C@H](C)O1` [Compound 63], the EC50 turned out to be 0.14 nM. For `COc1cccc2c1C(=O)c1c(O)c3c(c(O)c1C2=O)C[C@@](O)(C(=O)N[C@H]1CC[C@@H](N)C1)C[C@@H]3O[C@H]1C[C@H]2[C@H](O[C@@H]3[C@@H](OC)OCCN32)[C@H](C)O1` [Compound 34], the EC50 is 19 nM. `COc1cccc2c1C(=O)c1c(O)c3c(c(O)c1C2=O)C[C@@](O)(C(=O)N[C@H]1[C@@H]2CNC[C@@H]21)C[C@@H]3O[C@H]1C[C@H]2[C@H](O[C@@H]3[C@@H](OC)OCCN32)[C@H](C)O1` [Compound 35]: it took 0.97 nM to reach a half-maximal effect (EC50). Compared with the last compound, the EC50 is about 20-fold lower. Turning to `COc1cccc2c1C(=O)c1c(O)c3c(c(O)c1C2=O)C[C@@](O)(C(=O)N[C@H]1C[C@@H](N)C1)C[C@@H]3O[C@H]1C[C@H]2[C@H](O[C@@H]3[C@@H](OC)OCCN32)[C@H](C)O1` [Compound 53], the concentration giving a half-maximal response (EC50) came to 7.7 nM. Regarding `COc1cccc2c1C(=O)c1c(O)c3c(c(O)c1C2=O)C[C@@](O)(C(=O)NCc1ccc(N)cn1)C[C@@H]3O[C@H]1C[C@H]2[C@H](O[C@@H]3[C@@H](OC)OCCN32)[C@H](C)O1` [Compound 32], a half-maximal effect (EC50) was put at 0.07 nM. `COc1cccc2c1C(=O)c1c(O)c3c(c(O)c1C2=O)C[C@@](O)(C(=O)NCc1ccccc1N)C[C@@H]3O[C@H]1C[C@H]2[C@H](O[C@@H]3[C@@H](OC)OCCN32)[C@H](C)O1` [Compound 79] gave a concentration giving a half-maximal response (EC50) of 0.15 nM. This EC50 is about 2.1-fold higher than that of the compound before.

Compound `COc1cccc2c1C(=O)c1c(O)c3c(c(O)c1C2=O)C[C@@](O)(C(=O)N[C@H]1C[C@@H](CN)C1)C[C@@H]3O[C@H]1C[C@H]2[C@H](O[C@@H]3[C@@H](OC)OCCN32)[C@H](C)O1` [Compound 55] registered an EC50 of 10.2 nM.

The compound `COc1cccc2c1C(=O)c1c(O)c3c(c(O)c1C2=O)C[C@@](O)(C(=O)NC12CNCC1C2)C[C@@H]3O[C@H]1C[C@H]2[C@H](O[C@@H]3[C@@H](OC)OCCN32)[C@H](C)O1` (some centres unmarked) [Compound 57] yielded an EC50 of 1.6 nM. Against the preceding compound, the EC50 is about 6.4-fold lower. In the case of `COc1cccc2c1C(=O)c1c(O)c3c(c(O)c1C2=O)C[C@@](O)(C(=O)NCCNC(=O)NN)C[C@@H]3O[C@H]1C[C@H]2[C@H](O[C@@H]3[C@@H](OC)OCCN32)[C@H](C)O1` [Compound 5], the EC50 worked out at 2.8 nM. Turning to `COc1cccc2c1C(=O)c1c(O)c3c(c(O)c1C2=O)C[C@@](O)(C(=O)NCC12CC(N)(C1)C2)C[C@@H]3O[C@H]1C[C@H]2[C@H](O[C@@H]3[C@@H](OC)OCCN32)[C@H](C)O1` [Compound 84], the EC50 came out at 0.61 nM.

Regarding `COc1cccc2c1C(=O)c1c(O)c3c(c(O)c1C2=O)C[C@@](O)(C(=O)NC12CC(CN)(C1)C2)C[C@@H]3O[C@H]1C[C@H]2[C@H](O[C@@H]3[C@@H](OC)OCCN32)[C@H](C)O1` [Compound 44], the EC50 is 4.8 nM. Against the preceding compound, the EC50 is about 7.9-fold higher. In the case of `COc1cccc2c1C(=O)c1c(O)c3c(c(O)c1C2=O)C[C@@](O)(C(=O)N1CC(CN)C1)C[C@@H]3O[C@H]1C[C@H]2[C@H](O[C@@H]3[C@@H](OC)OCCN32)[C@H](C)O1` [Compound 2], the 50% effective concentration (EC50) came out at 22 nM.

Take `COc1cccc2c1C(=O)c1c(O)c3c(c(O)c1C2=O)C[C@@](O)(C(=O)NCCCN1CCNCC1)C[C@@H]3O[C@H]1C[C@H]2[C@H](O[C@@H]3[C@@H](OC)OCCN32)[C@H](C)O1` [Compound 39]: the response was half-maximal at 3.8 nM (EC50). On the same count and under the same terms, with `COc1cccc2c1C(=O)c1c(O)c3c(c(O)c1C2=O)C[C@@](O)(C(=O)NCCNC(=O)CN)C[C@@H]3O[C@H]1C[C@H]2[C@H](O[C@@H]3[C@@H](OC)OCCN32)[C@H](C)O1` [Compound 4] the figure was 13 nM; with `COc1cccc2c1C(=O)c1c(O)c3c(c(O)c1C2=O)C[C@@](O)(C(=O)Nc1ccc(N)cc1)C[C@@H]3O[C@H]1C[C@H]2[C@H](O[C@@H]3[C@@H](OC)OCCN32)[C@H](C)O1` [Compound 77], 0.11 nM; with `COc1cccc2c1C(=O)c1c(O)c3c(c(O)c1C2=O)C[C@@](O)(C(=O)NC1CNC1)C[C@@H]3O[C@H]1C[C@H]2[C@H](O[C@@H]3[C@@H](OC)OCCN32)[C@H](C)O1` [Compound 27], 39 nM. Same read-out and setting: in the case of `COc1cccc2c1C(=O)c1c(O)c3c(c(O)c1C2=O)C[C@@](O)(C(=O)NCCC(N)C(F)F)C[C@@H]3O[C@H]1C[C@H]2[C@H](O[C@@H]3[C@@H](OC)OCCN32)[C@H](C)O1` (some centres unmarked) [Compound 74] it was 0.2 nM. Turning to `COc1cccc2c1C(=O)c1c(O)c3c(c(O)c1C2=O)C[C@@](O)(C(=O)NCCCN)C[C@@H]3O[C@H]1C[C@H]2[C@H](O[C@@H]3[C@@H](OC)OCCN32)[C@H](C)O1` [Compound 18], a half-maximal effect (EC50) was put at 8.5 nM. Regarding `CNCCCNC(=O)[C@]1(O)Cc2c(O)c3c(c(O)c2[C@@H](O[C@H]2C[C@H]4[C@H](O[C@@H]5[C@@H](OC)OCCN54)[C@H](C)O2)C1)C(=O)c1c(OC)cccc1C3=O` [Compound 38], a half-maximal effect (EC50) was put at 9.1 nM. The same measure, in the same setting: with `COc1cccc2c1C(=O)c1c(O)c3c(c(O)c1C2=O)C[C@@](O)(C(=O)NCc1cccc(N)c1)C[C@@H]3O[C@H]1C[C@H]2[C@H](O[C@@H]3[C@@H](OC)OCCN32)[C@H](C)O1` [Compound 1, (2S,4S)—N-(3-aminobenzyl)-2,5,12-trihydroxy-7-methoxy-4-(((1S,3R,4aS,9S,9aR,10aS)-9-methoxy-1-methyloctahydro-1H-pyrano[4′,3′:4,5]oxazolo[2,3-c][1,4]oxazin-3-yl)oxy)-6,11-dioxo-1,2,3,4,6,11-hexahydrotetracene-2-carboxamide] the figure was 0.08 nM. For the compound `COc1cccc2c1C(=O)c1c(O)c3c(c(O)c1C2=O)C[C@@](O)(C(=O)NC1CCNC1)C[C@@H]3O[C@H]1C[C@H]2[C@H](O[C@@H]3[C@@H](OC)OCCN32)[C@H](C)O1` (some centres unmarked) [Compound 12], the EC50 is 7.7 nM. Compound `COc1cccc2c1C(=O)c1c(O)c3c(c(O)c1C2=O)C[C@@](O)(C(=O)NCC(N)C(F)(F)F)C[C@@H]3O[C@H]1C[C@H]2[C@H](O[C@@H]3[C@@H](OC)OCCN32)[C@H](C)O1` (some centres unmarked) [Compound 65] displayed an EC50 of 0.16 nM. In the case of `COc1cccc2c1C(=O)c1c(O)c3c(c(O)c1C2=O)C[C@@](O)(C(=O)N1CCNCC1)C[C@@H]3O[C@H]1C[C@H]2[C@H](O[C@@H]3[C@@H](OC)OCCN32)[C@H](C)O1` [Compound 68], the EC50 stood at 8.1 nM. As to `COc1cccc2c1C(=O)c1c(O)c3c(c(O)c1C2=O)C[C@@](O)(C(=O)N[C@@H]1CC[C@H](N)C1)C[C@@H]3O[C@H]1C[C@H]2[C@H](O[C@@H]3[C@@H](OC)OCCN32)[C@H](C)O1` [Compound 33], the half-maximal effective concentration (EC50) is 9.2 nM. The EC50 values of the last two compounds are within 1.5-fold of each other. Still for that read-out and setting: with `COc1cccc2c1C(=O)c1c(O)c3c(c(O)c1C2=O)C[C@@](O)(C(=O)N1CC(CNC(=O)[C@H](C)N)C1)C[C@@H]3O[C@H]1C[C@H]2[C@H](O[C@@H]3[C@@H](OC)OCCN32)[C@H](C)O1` [Compound 6] the figure was 8.6 nM; with `COc1cccc2c1C(=O)c1c(O)c3c(c(O)c1C2=O)C[C@@](O)(C(=O)N[C@H]1CCCC[C@@H]1N)C[C@@H]3O[C@H]1C[C@H]2[C@H](O[C@@H]3[C@@H](OC)OCCN32)[C@H](C)O1` [Compound 25], 10.5 nM. Same read-out and setting: with `COc1cccc2c1C(=O)c1c(O)c3c(c(O)c1C2=O)C[C@@](O)(C(=O)NCCNC(=O)[C@H](C)N)C[C@@H]3O[C@H]1C[C@H]2[C@H](O[C@@H]3[C@@H](OC)OCCN32)[C@H](C)O1` [Compound 7] the figure was 13 nM. On the same count and under the same terms, in the case of `COc1cccc2c1C(=O)c1c(O)c3c(c(O)c1C2=O)C[C@@](O)(C(=O)NCC1(F)CNC1)C[C@@H]3O[C@H]1C[C@H]2[C@H](O[C@@H]3[C@@H](OC)OCCN32)[C@H](C)O1` [Compound 36] it was 0.42 nM; in that of `COc1cccc2c1C(=O)c1c(O)c3c(c(O)c1C2=O)C[C@@](O)(C(=O)NC[C@H]1C[C@H](N)C1)C[C@@H]3O[C@H]1C[C@H]2[C@H](O[C@@H]3[C@@H](OC)OCCN32)[C@H](C)O1` [Compound 43], 2.2 nM; in that of `COc1cccc2c1C(=O)c1c(O)c3c(c(O)c1C2=O)C[C@@](O)(C(=O)NC[C@H]1CNC(=O)C1)C[C@@H]3O[C@H]1C[C@H]2[C@H](O[C@@H]3[C@@H](OC)OCCN32)[C@H](C)O1` [Compound 85], 0.4 nM. Consider `COc1cccc2c1C(=O)c1c(O)c3c(c(O)c1C2=O)C[C@@](O)(C(=O)NC12CC(NC(=O)CO)(C1)C2)C[C@@H]3O[C@H]1C[C@H]2[C@H](O[C@@H]3[C@@H](OC)OCCN32)[C@H](C)O1` [Compound 60], for which the EC50 was found to be 0.55 nM. The EC50 values of the last two compounds are within 1.5-fold of each other. On the same count and under the same terms, in the case of `COc1cccc2c1C(=O)c1c(O)c3c(c(O)c1C2=O)C[C@@](O)(C(=O)NCCC1(N)COC1)C[C@@H]3O[C@H]1C[C@H]2[C@H](O[C@@H]3[C@@H](OC)OCCN32)[C@H](C)O1` [Compound 51] it was 0.18 nM; in that of `COc1cccc2c1C(=O)c1c(O)c3c(c(O)c1C2=O)C[C@@](O)(C(=O)NCCN(C)C(=O)C1(N)CCCC1)C[C@@H]3O[C@H]1C[C@H]2[C@H](O[C@@H]3[C@@H](OC)OCCN32)[C@H](C)O1` [Compound 48], 0.31 nM.
